According to patent US20200171042A1, “BRAIN-PENETRANT CHROMONE OXIME DERIVATIVE FOR THE THERAPY OF LEVODOPA-INDUCED DYSKINESIA” (Prexton Therapeutics SA, priority 2015, published 2020):

What was measured:
human mGluR4 = human mGluR4 (Homo sapiens, UniProt Q14833); assay: calcium assay, agonistic and/or positive allosteric modulator activity; type: cell-based; details: read-out: EC50 (corresponding to pEC50) (converted)
Description: The compound of formula (I) according to the invention (i.e., PXT002331) was tested for its agonistic and/or positive allosteric modulator activity on human mGluR4 using the calcium assay described in Example 171 of WO 2011/051478.

[1] = phase I metabolic stability, CL (h); type: in vitro ADME; details: human; h of CL (h/r)
Description: (§1) The in vitro ADME profile of PXT002331 was also very similar with reference to phase I metabolic stability: CL (h/r): 55/101 μl/min/mg protein and intestinal absorption: CaCo-2 (A-B, pgp): 4.11 .10-6 cm/s, no efflux.

[2] = phase I metabolic stability, CL (r); type: in vitro ADME; details: rat; r of CL (h/r)
Description: as §1

[3] = intestinal absorption CaCo-2 (A-B, pgp); type: in vitro ADME; details: human, Caco-2; A-B
Description: as §1

CaCo-2 = assay: intestinal absorption CaCo-2 (A-B, pgp); type: in vitro ADME; details: pgp
Description: as §1

plasma protein binding = type: in vitro ADME; details: read-out: plasma protein binding, free fraction
solubility in water = type: physicochemical; details: as hydrochloride salt
[4] = in vivo pharmacokinetics in rats (plasma and brain exposure); set-up: species or system male Sprague-Dawley rats; details: rat
Description: PXT002331 and PXT001858 were administered per os (p.o.) at 10 mg/kg to male Sprague-Dawley rats. Volume of administration was 10 ml/kg. In parallel, PXT002331 was also administered intravenously (i.v.) at 1 mg/kg, with a volume of administration of 2 ml/kg. Blood samples (200 μl) were collected at time ranging from 15 minutes to 24 hours for the p.o. administration and from 5 minutes to 24 hours for the i.v. administration in ice-cold tubes containing 0.2% K2EDTA. Tubes were centrifuged at 10,000 rpm for 5 minutes at 4° C. The plasma (supernatant) was separated in another tube and stored at −80° C. until analysis. Two groups of 3 animals were used for each route of administration: in one group, blood samples were collected to determine the kinetics of plasma exposure over a 24-hour period, and in the second group, blood and brain were collected at one terminal time point (0.5, 1.0, 1.5, 2.0, 4.0 hours) to determine the kinetics of brain exposure and brain/plasma ratio.
The respective parent compound (free base) was analysed in plasma samples and in brain homogenate using a LC-MS/MS method. Concentrations are expressed in ng/ml of plasma or in ng/g of brain tissue.

[5] = tested on: UGT (UDP-Glucuronosyl transferase); assay: in vitro glucuronidation in rat liver microsomes; type: in vitro ADME; details: in vitro in the presence of UGT
Description: Despite their similar oral absorption, PXT002331 has a higher brain/plasma ratio (6.5 versus 2.0 at T=1.5 h; see FIG. 4) leading to a 3-fold improvement in the brain AUC when compared to PXT001858. A posteriori, one potential hypothesis might rely on the difference of phase II conjugation in the intestine and liver during oral absorption. […] Nonetheless, this difference observed in vitro cannot by itself explain the unexpected advantageous PK results obtained with PXT002331. The results obtained in these experiments are furthermore summarized in Tables 1 to 3 below and in FIGS. 1 to 4.

[6] = tested on: MPTP macaque model of Parkinson's disease; assay: MPTP macaque model of advanced stages of PD; type: in vivo, Macaca fascicularis
Description: The anti-parkinsonian efficacy of the compound of formula (I) according to the present invention (i.e., PXT002331) was evaluated in the 1-methyl-4-phenyl-1,2,3,6-tetrahydropyridine (MPTP) macaque model of Parkinson's disease (using macaques of the species Macaca fascicularis), which reproduces most of the clinical and pathological hallmarks of Parkinson's disease and is considered a “gold standard” (see Porras G et al., Cold Spring Harb Perspect Med., 2(3):a009308, 2012 and references cited therein for a general description of the MPTP model). […] The anti-parkinsonian efficacy of PXT002331 (25 mg/kg) was further evaluated in combination with low (suboptimal) doses of L-dopa (levodopa; 4-9 mg/kg) (see FIGS. 5B and 5C). In this model, levodopa methyl ester was administered sub-cutaneously together with a fixed dose of benserazide (50 mg total), a peripherally-acting levodopa decarboxylase inhibitor. Doses of PXT002331 were orally administered twice a day during 4 days, and assessment of parkinsonian scores took place at day 4 (between 1 and 2 h after L-dopa administration, i.e., between 2 and 3 h after PXT002331 administration). […] The results of a dose-response evaluation of the combination of PXT002331 (at doses from 2 mg/kg to 100 mg/kg) with L-dopa (low dose) are shown in FIG. 5D (the assessment of parkinsonian scores took place at day 4).

[7] = tested on: CLD MPTP macaque model of early-stage PD; assay: chronic low doses of MPTP (CLD MPTP) macaque model of early-stage PD; type: in vivo, Macaca fascicularis
Description: In this model, levodopa was administered orally as Madopar which contains benserazide hydrochloride (4:1 ratio of levodopa:benserazide), a peripherally-acting levodopa decarboxylase inhibitor. In this experiment, each monkey was equipped with a detector of movements and signals were collected with 24 light beams and a video track recorder in order to discriminate all types of movements. The movements of each monkey were quantified every 5 min using computer-based activity monitors. Total values are presented over 4 hours.

CLD MPTP macaque model = assay: Variable Delayed Response (VDR) task, cognitive performance of CLD MPTP monkeys; type: in vivo, Macaca fascicularis
From the text: Monkeys that receive chronic low doses of MPTP administration (CLD MPTP macaque model) develop cognitive impairment, as measured in the Variable Delayed Response (VDR) task. It was therefore decided to evaluate the cognitive impact of PXT002331 in these animals, in order to assess potential side effects on cognitive symptoms.

[8] = tested on: MPTP macaque model of L-DOPA-induced dyskinesia; assay: MPTP macaque model of L-DOPA-induced dyskinesia (LID); type: in vivo
Description: Like PD patients, MPTP macaques experience side effects of their long-term L-DOPA therapy, including L-DOPA-induced dyskinesia (LID). This was the case with the MPTP macaques that were at an advanced stage of parkinsonism used in this experiment. PXT002331 was tested in these monkeys, using the dose of 25 mg/kg in combination with L-DOPA.
Moreover, this was observed as early as day 1, which corresponds to an acute administration of PXT002331, and is maintained after a sub-chronic treatment (twice daily for 8 consecutive days). Importantly, the efficacy of L-DOPA for reducing parkinsonian symptoms (tremor, posture, mobility) was maintained in association with PXT002331 dose, as shown in FIG. 9B.

MPTP macaques = assay: general behavior, adverse events in MPTP macaques; type: in vivo, Macaca fascicularis; details: alone or with L-DOPA, even at high doses
Description: Adverse events and side effects of PXT002331 were analyzed during each study performed in macaques (see Example 3).

[9] = p.o. 10 mg/kg, vehicle Tween-80/Ethanol/30% HPBCD (2/10/88)

Chain of human mGluR4 (Q14833 33-912): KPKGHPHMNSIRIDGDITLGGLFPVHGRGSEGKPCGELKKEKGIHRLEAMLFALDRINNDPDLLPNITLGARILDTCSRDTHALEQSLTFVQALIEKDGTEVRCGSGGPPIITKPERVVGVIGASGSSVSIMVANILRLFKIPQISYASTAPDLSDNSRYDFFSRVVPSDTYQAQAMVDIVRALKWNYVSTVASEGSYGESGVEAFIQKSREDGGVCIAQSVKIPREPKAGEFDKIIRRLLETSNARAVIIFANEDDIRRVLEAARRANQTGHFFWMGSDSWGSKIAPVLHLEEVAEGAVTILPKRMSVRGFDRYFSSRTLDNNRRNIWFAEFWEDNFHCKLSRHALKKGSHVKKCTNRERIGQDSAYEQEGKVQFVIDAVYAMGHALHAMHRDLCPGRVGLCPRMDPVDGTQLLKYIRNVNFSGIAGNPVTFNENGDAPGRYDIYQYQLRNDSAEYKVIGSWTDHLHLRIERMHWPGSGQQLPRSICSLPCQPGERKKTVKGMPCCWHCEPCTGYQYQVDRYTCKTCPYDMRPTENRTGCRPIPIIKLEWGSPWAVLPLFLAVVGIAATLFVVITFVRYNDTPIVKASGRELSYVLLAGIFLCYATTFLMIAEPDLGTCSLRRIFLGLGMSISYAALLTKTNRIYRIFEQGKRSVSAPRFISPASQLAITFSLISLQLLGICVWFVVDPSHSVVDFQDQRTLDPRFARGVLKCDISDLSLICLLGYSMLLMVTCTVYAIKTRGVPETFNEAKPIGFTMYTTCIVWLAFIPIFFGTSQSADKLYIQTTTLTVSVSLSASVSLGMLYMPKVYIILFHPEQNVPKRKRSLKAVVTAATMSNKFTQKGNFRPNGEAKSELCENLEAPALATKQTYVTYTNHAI

O/N=c1\cc(-c2cc3sccc3cn2)oc2ccc(CCCN3CCOCC3)cc12 [PXT002331, 6-(3-morpholin-4-yl-propyl)-2-(thieno[3,2-c]pyridin-6-yl)-4H-chromen-4-one oxime]
EC50 (human mGluR4): ~76 nM | microsomal CLint [1]: 55 µL/min/mg | microsomal CLint [2]: 101 µL/min/mg | Papp A→B [3]: 4.11 ×10⁻⁶ cm/s | CaCo-2 efflux (CaCo-2): no efflux | fraction unbound (plasma protein binding): < 0.01 | solubility (solubility in water): > 10000 µg/mL | Kp at 1.5 h ([4]; male, Sprague-Dawley, brain, oral 10 mg/kg, T = 1.5 h, read-out: Brain/Plasma ratio (T = 1.5 h)): 6.5 | bioavailability ([4]; male, Sprague-Dawley, plasma, oral, p.o. 10 mg/kg vs i.v. 1 mg/kg): 39% | AUC(0-inf) ([4]; male, Sprague-Dawley, plasma, oral 10 mg/kg): 432 ng·h/mL | Brain AUC inf ([4]; oral 10 mg/kg): 2713 ng·h/g | Cmax (Brain) ([4]; oral 10 mg/kg): 818 ng/G tissue | improvement in brain AUC compared to PXT001858 ([4]; oral 10 mg/kg): 3 fold | plasma exposure AUC relative to PXT001858 [4, 9]: 1.1 fold | plasma exposure Cmax relative to PXT001858 [4, 9]: 0.7 fold | level of glucuronidation compared to PXT001858 [5]: much lower level of glucuronidation | robustness: monkeys improving in parkinsonian score ([6]; PXT002331 25 mg/kg + low dose L-dopa, day 4): all treated monkeys showed a significant improvement in parkinsonian score | parkinsonian score versus L-dopa (suboptimal dose) alone ([6]; PXT002331 25 mg/kg p.o. twice a day 4 days + suboptimal L-dopa 4-9 mg/kg, day 4): considerable improvement in parkinsonian score | anti-parkinsonian effect, dose-response evaluation ([6]; PXT002331 2 to 100 mg/kg oral + L-dopa (low dose), day 4): highly potent anti-parkinsonian effect | induction of dyskinesia ([6]; PXT002331 alone, any of the doses tested, more advanced stages of PD): did not induce dyskinesia | change of dyskinesia by PXT002331 treatment ([6]; added to sub-optimal doses of L-DOPA, any dose tested): not increased | anti-parkinsonian activity (parkinsonian score) ([6]; stand-alone treatment, p.o. twice a day for 4 days, score at day 4 over 2 h, n=7): potent anti-parkinsonian activity | induction of dyskinesia ([7]; CLD MPTP macaques, PXT002331 alone or in combination with any doses of L-DOPA tested): no induction of dyskinesia | robustness: monkeys responding in locomotor activity ([7]; PXT002331 25 mg/kg + L-dopa): each and every monkey included in the study responded | locomotor activity ([7]; PXT002331 25 mg/kg oral + low or optimal dose of L-dopa (Madopar), total over 4 hours, N=5): significant improvement in locomotor activity | induction of dyskinesia ([7]; PXT002331 25 to 100 mg/kg + optimal (high) dose of L-dopa): without inducing dyskinesia | disability score ([7]; increasing doses of PXT002331 + L-dopa (optimal dose)): improvement in the disability score | worsening of cognitive performances in VDR task (CLD MPTP macaque model; PXT002331 25 mg/kg alone or in combination with L-DOPA, N=4): none of the treatments with PXT002331, alone or in combination with L-DOPA, induced any worsening of the cognitive performances | omission rate in VDR task, change on adding PXT002331 (CLD MPTP macaque model; one out of four animals, PXT002331 25 mg/kg added to optimal dose of L-DOPA): decreased by half | dyskinesia (mean dyskinesia score over 2 hours) ([8]; PXT002331 25 mg/kg + L-DOPA, 30 min before or same time, day 1 and day 8 (twice daily)): clear reduction of dyskinesia | robustness: dyskinetic monkeys responding ([8]; PXT002331 25 mg/kg + L-DOPA, N=4 dyskinetic animals): each and every dyskinetic monkey included in the study responded to treatment | efficacy of L-DOPA for reducing parkinsonian symptoms (tremor, posture, mobility) ([8]; in association with PXT002331 25 mg/kg): maintained | adverse change in behavior (circling, excitement, lethargy, sleepiness) (MPTP macaques): never induced any apparent adverse change in behavior

O/N=c1\cc(-c2cc3sccc3cn2)oc2ccc(OCCN3CCOCC3)cc12 [PXT001858, reference compound]
Brain AUC inf ([4]; oral 10 mg/kg): 838 ng·h/g | Cmax (Brain) ([4]; oral 10 mg/kg): 521 ng/G tissue

N[C@@H](Cc1ccc(O)c(O)c1)C(=O)O [L-DOPA, L-3,4-dihydroxyphenylalanine, reference compound]
dyskinesia (mean dyskinesia score) ([6]; highest doses of L-DOPA): very mild | dyskinesia ([6]; sub-optimal doses of L-DOPA): weak or absent | induction of dyskinesia ([7]; L-DOPA alone, model of early stage PD): did not induce dyskinesia | omissions in VDR task (CLD MPTP macaque model; one out of four animals, optimal dose of L-DOPA alone): ~100%
